Tested on: 782815-120-R-J1-PDC complex spheroid viability
Assay: Anticancer human tumor 782815-120-R-J1-PDC patient-derived colon adenocarcinoma cell line growth inhibition [RAS]
Details: for IC50: curve of first compound; for viability, T/C: stronger effect = lower value
Outline: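 Multi-cell-type spheroids: tumor cells plus HUVEC endothelial cells and mesenchymal stem cells. RAS-pathway inhibitors were combined with targeted agents, each dosed in half-log steps down from clinical Cmax, or from 10 microM when Cmax was unknown.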

[1] = second compound 0.000949 µM, first compound 0.00316 µM
[2] = second compound 0.000949 µM, first compound 0.01 µM
[3] = second compound 0.000949 µM, first compound 0.0316 µM
[4] = second compound 0.000949 µM, first compound 0.1 µM
[5] = second compound 0.000949 µM, first compound 0.316 µM
[6] = second compound 0.000949 µM, first compound 1 µM
[7] = second compound 0.003 µM, first compound 0.00316 µM
[8] = second compound 0.003 µM, first compound 0.01 µM
[9] = second compound 0.003 µM, first compound 0.0316 µM
[10] = second compound 0.003 µM, first compound 0.1 µM
[11] = second compound 0.003 µM, first compound 0.316 µM
[12] = second compound 0.003 µM, first compound 1 µM
[13] = second compound 0.00949 µM, first compound 0.00316 µM
[14] = second compound 0.00949 µM, first compound 0.01 µM
[15] = second compound 0.00949 µM, first compound 0.0316 µM
[16] = second compound 0.00949 µM, first compound 0.1 µM
[17] = second compound 0.00949 µM, first compound 0.316 µM
[18] = second compound 0.00949 µM, first compound 1 µM
[19] = second compound 0.03 µM, first compound 0.00316 µM
[20] = second compound 0.03 µM, first compound 0.01 µM
[21] = second compound 0.03 µM, first compound 0.0316 µM
[22] = second compound 0.03 µM, first compound 0.1 µM
[23] = second compound 0.03 µM, first compound 0.316 µM
[24] = second compound 0.03 µM, first compound 1 µM
[25] = second compound 0.0949 µM, first compound 0.00316 µM
[26] = second compound 0.0949 µM, first compound 0.01 µM
[27] = second compound 0.0949 µM, first compound 0.0316 µM
[28] = second compound 0.0949 µM, first compound 0.1 µM
[29] = second compound 0.0949 µM, first compound 0.316 µM
[30] = second compound 0.0949 µM, first compound 1 µM
[31] = second compound 0.3 µM, first compound 0.00316 µM
[32] = second compound 0.3 µM, first compound 0.01 µM
[33] = second compound 0.3 µM, first compound 0.0316 µM
[34] = second compound 0.3 µM, first compound 0.1 µM
[35] = second compound 0.3 µM, first compound 0.316 µM
[36] = second compound 0.3 µM, first compound 1 µM
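Also: spheroids exposed to compounds for 7 days before reading.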
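For viability, T/C in this document: 100% = DMSO vehicle control viability.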

## C=CC(=O)N1CCN(c2nc(OCC3CCCN3C)nc3c(F)c(-c4nc(N)cc(C)c4C(F)(F)F)c(Cl)cc23)C(C)C1 (stereo not drawn) + CCn1c(-c2cc(N3CCN(C)CC3)cnc2C(C)OC)c2c3cc(ccc31)-c1csc(n1)CC(NC(=O)C1CC1C)C(=O)N1CCCC(N1)C(=O)OCC(C)(C)C2
Second compound 0.000949 µM
  IC50: > 1 µM
Second compound 0.003 µM
  IC50: > 1 µM
Second compound 0.00949 µM
  IC50: < 0.00316 µM
Second compound 0.03 µM
  IC50: < 0.00316 µM
Second compound 0.0949 µM
  IC50: < 0.00316 µM
Second compound 0.3 µM
  IC50: < 0.00316 µM
[1]
  viability, T/C: 82.5%
[2]
  viability, T/C: 74.3%
[3]
  viability, T/C: 70%
[4]
  viability, T/C: 79.5%
[5]
  viability, T/C: 77.1%
[6]
  viability, T/C: 90%
[7]
  viability, T/C: 57.1%
[8]
  viability, T/C: 56.9%
[9]
  viability, T/C: 57.9%
[10]
  viability, T/C: 49.6%
[11]
  viability, T/C: 55%
[12]
  viability, T/C: 57.2%
[13]
  viability, T/C: 31.1%
[14]
  viability, T/C: 32%
[15]
  viability, T/C: 36.7%
[16]
  viability, T/C: 29.8%
[17]
  viability, T/C: 31.6%
[18]
  viability, T/C: 31%
[19]
  viability, T/C: 19.6%
[20]
  viability, T/C: 22%
[21]
  viability, T/C: 17.9%
[22]
  viability, T/C: 20.6%
[23]
  viability, T/C: 18.1%
[24]
  viability, T/C: 19.8%
[25]
  viability, T/C: 16%
[26]
  viability, T/C: 14.3%
[27]
  viability, T/C: 16.1%
[28]
  viability, T/C: 15.5%
[29]
  viability, T/C: 15.2%
[30]
  viability, T/C: 13.5%
[31]
  viability, T/C: 16.1%
[32]
  viability, T/C: 16.3%
[33]
  viability, T/C: 15.6%
[34]
  viability, T/C: 16.5%
[35]
  viability, T/C: 16.2%
[36]
  viability, T/C: 13.6%

## CC1(C)CCC(Nc2ncc(C(F)(F)F)c(-c3c[nH]c4c(P(C)(C)=O)c(C#N)ccc34)n2)CN1 (stereo not drawn) + CCn1c(-c2cc(N3CCN(C)CC3)cnc2C(C)OC)c2c3cc(ccc31)-c1csc(n1)CC(NC(=O)C1CC1C)C(=O)N1CCCC(N1)C(=O)OCC(C)(C)C2
Second compound 0.000949 µM
  IC50: 0.0146 µM
Second compound 0.003 µM
  IC50: 0.0024 µM
Second compound 0.00949 µM
  IC50: < 0.000949 µM
Second compound 0.03 µM
  IC50: < 0.000949 µM
Second compound 0.0949 µM
  IC50: < 0.000949 µM
Second compound 0.3 µM
  IC50: < 0.000949 µM
Second compound 0.000949 µM, first compound 0.000949 µM
  viability, T/C: 65.1%
Second compound 0.000949 µM, first compound 0.003 µM
  viability, T/C: 61.3%
Second compound 0.000949 µM, first compound 0.00949 µM
  viability, T/C: 54.6%
Second compound 0.000949 µM, first compound 0.03 µM
  viability, T/C: 43%
Second compound 0.000949 µM, first compound 0.0949 µM
  viability, T/C: 36.9%
Second compound 0.000949 µM, first compound 0.3 µM
  viability, T/C: 39.2%
Second compound 0.003 µM, first compound 0.000949 µM
  viability, T/C: 52.9%
Second compound 0.003 µM, first compound 0.003 µM
  viability, T/C: 54%
Second compound 0.003 µM, first compound 0.00949 µM
  viability, T/C: 44.6%
Second compound 0.003 µM, first compound 0.03 µM
  viability, T/C: 31.3%
Second compound 0.003 µM, first compound 0.0949 µM
  viability, T/C: 34.4%
Second compound 0.003 µM, first compound 0.3 µM
  viability, T/C: 34.2%
Second compound 0.00949 µM, first compound 0.000949 µM
  viability, T/C: 30.3%
Second compound 0.00949 µM, first compound 0.003 µM
  viability, T/C: 30.4%
Second compound 0.00949 µM, first compound 0.00949 µM
  viability, T/C: 25.7%
Second compound 0.00949 µM, first compound 0.03 µM
  viability, T/C: 22.8%
Second compound 0.00949 µM, first compound 0.0949 µM
  viability, T/C: 19.2%
Second compound 0.00949 µM, first compound 0.3 µM
  viability, T/C: 23.6%
Second compound 0.03 µM, first compound 0.000949 µM
  viability, T/C: 18.7%
Second compound 0.03 µM, first compound 0.003 µM
  viability, T/C: 18.3%
Second compound 0.03 µM, first compound 0.00949 µM
  viability, T/C: 15.3%
Second compound 0.03 µM, first compound 0.03 µM
  viability, T/C: 14%
Second compound 0.03 µM, first compound 0.0949 µM
  viability, T/C: 13%
Second compound 0.03 µM, first compound 0.3 µM
  viability, T/C: 13.6%
Second compound 0.0949 µM, first compound 0.000949 µM
  viability, T/C: 15.6%
Second compound 0.0949 µM, first compound 0.003 µM
  viability, T/C: 15.6%
Second compound 0.0949 µM, first compound 0.00949 µM
  viability, T/C: 9.83%
Second compound 0.0949 µM, first compound 0.03 µM
  viability, T/C: 10.4%
Second compound 0.0949 µM, first compound 0.0949 µM
  viability, T/C: 10.7%
Second compound 0.0949 µM, first compound 0.3 µM
  viability, T/C: 8.29%
Second compound 0.3 µM, first compound 0.000949 µM
  viability, T/C: 16.3%
Second compound 0.3 µM, first compound 0.003 µM
  viability, T/C: 13.9%
Second compound 0.3 µM, first compound 0.00949 µM
  viability, T/C: 12.5%
Second compound 0.3 µM, first compound 0.03 µM
  viability, T/C: 9.35%
Second compound 0.3 µM, first compound 0.0949 µM
  viability, T/C: 7.69%
Second compound 0.3 µM, first compound 0.3 µM
  viability, T/C: 7.08%

## C=CC(=O)Nc1cc(Nc2nccc(-c3cn(C)c4ccccc34)n2)c(OC)cc1N(C)CCN(C)C + CCn1c(-c2cccnc2C(C)OC)c2c3cc(ccc31)N1CCOC(CC(NC(=O)C(C(C)C)N(C)C(=O)C3(F)CCN(C(=O)C#CC(C)(C)N(C)C)CC3)C(=O)N3CCCC(N3)C(=O)OCC(C)(C)C2)C1
Second compound 0.000949 µM
  IC50: > 1 µM
Second compound 0.003 µM
  IC50: > 1 µM
Second compound 0.00949 µM
  IC50: > 1 µM
Second compound 0.03 µM
  IC50: > 1 µM
Second compound 0.0949 µM
  IC50: > 1 µM
Second compound 0.3 µM
  IC50: > 1 µM
[1]
  viability, T/C: 102%
[2]
  viability, T/C: 97.7%
[3]
  viability, T/C: 99.6%
[4]
  viability, T/C: 103%
[5]
  viability, T/C: 87.2%
[6]
  viability, T/C: 84%
[7]
  viability, T/C: 102%
[8]
  viability, T/C: 91.1%
[9]
  viability, T/C: 90.9%
[10]
  viability, T/C: 91.9%
[11]
  viability, T/C: 93.8%
[12]
  viability, T/C: 83.2%
[13]
  viability, T/C: 96.9%
[14]
  viability, T/C: 92.8%
[15]
  viability, T/C: 94.2%
[16]
  viability, T/C: 96.5%
[17]
  viability, T/C: 100%
[18]
  viability, T/C: 84.3%
[19]
  viability, T/C: 86.4%
[20]
  viability, T/C: 92.8%
[21]
  viability, T/C: 96.3%
[22]
  viability, T/C: 86.4%
[23]
  viability, T/C: 93%
[24]
  viability, T/C: 86.1%
[25]
  viability, T/C: 94.2%
[26]
  viability, T/C: 94.8%
[27]
  viability, T/C: 85.3%
[28]
  viability, T/C: 97.3%
[29]
  viability, T/C: 106%
[30]
  viability, T/C: 86.4%
[31]
  viability, T/C: 85.1%
[32]
  viability, T/C: 88%
[33]
  viability, T/C: 96.7%
[34]
  viability, T/C: 88.7%
[35]
  viability, T/C: 97%
[36]
  viability, T/C: 73.8%

## O=C(c1ccc(F)c(F)c1Nc1ccc(I)cc1F)N1CC(O)([C@@H]2CCCCN2)C1 + CCn1c(-c2cccnc2C(C)OC)c2c3cc(ccc31)N1CCOC(CC(NC(=O)C(C(C)C)N(C)C(=O)C3(F)CCN(C(=O)C#CC(C)(C)N(C)C)CC3)C(=O)N3CCCC(N3)C(=O)OCC(C)(C)C2)C1
Second compound 0.000949 µM
  IC50: 0.0477 µM
Second compound 0.003 µM
  IC50: 0.0534 µM
Second compound 0.00949 µM
  IC50: 0.0455 µM
Second compound 0.03 µM
  IC50: 0.0519 µM
Second compound 0.0949 µM
  IC50: 0.0461 µM
Second compound 0.3 µM
  IC50: 0.0406 µM
[1]
  viability, T/C: 91.2%
[2]
  viability, T/C: 74.1%
[3]
  viability, T/C: 60%
[4]
  viability, T/C: 35.2%
[5]
  viability, T/C: 17%
[6]
  viability, T/C: 1.9%
[7]
  viability, T/C: 85.9%
[8]
  viability, T/C: 73.5%
[9]
  viability, T/C: 60.6%
[10]
  viability, T/C: 39.1%
[11]
  viability, T/C: 16.4%
[12]
  viability, T/C: 2.12%
[13]
  viability, T/C: 88%
[14]
  viability, T/C: 74.6%
[15]
  viability, T/C: 57.7%
[16]
  viability, T/C: 34.5%
[17]
  viability, T/C: 15.9%
[18]
  viability, T/C: 1.1%
[19]
  viability, T/C: 79.2%
[20]
  viability, T/C: 86.5%
[21]
  viability, T/C: 55.3%
[22]
  viability, T/C: 36.6%
[23]
  viability, T/C: 14.8%
[24]
  viability, T/C: 1.32%
[25]
  viability, T/C: 78.3%
[26]
  viability, T/C: 73.4%
[27]
  viability, T/C: 55.4%
[28]
  viability, T/C: 36.5%
[29]
  viability, T/C: 16.3%
[30]
  viability, T/C: 3.86%
[31]
  viability, T/C: 81.3%
[32]
  viability, T/C: 66.4%
[33]
  viability, T/C: 56.3%
[34]
  viability, T/C: 35.5%
[35]
  viability, T/C: 14.2%
[36]
  viability, T/C: 0.95%

Reference: PubChem BioAssay AID2060887 (Molecular Pharmacology Branch, DTP, NCI, 2025)
